Measured values as given in the NIST ThermoML archive (doi:10.1021/je801009z).
Where “and” joins values, the source holds several entries; their conditions need not be identical. Identical values can stand only once. ± gives the expanded uncertainty stated by the source.

Details: Vibrating tube method

mass density (308 K, 20000 kPa, Fluid (supercritical or subcritical phases)) [kg/m3] | mass density (313 K, 10000 kPa, Fluid (supercritical or subcritical phases)) [kg/m3] | mass density (313 K, 15000 kPa, Fluid (supercritical or subcritical phases)) [kg/m3] | mass density (313 K, 20000 kPa, Fluid (supercritical or subcritical phases)) | mass density (313 K, 25000 kPa, Fluid (supercritical or subcritical phases)) [kg/m3] | mass density (313 K, 36000 kPa, Fluid (supercritical or subcritical phases)) [kg/m3] | mass density (318 K, 20000 kPa, Fluid (supercritical or subcritical phases)) [kg/m3] | mass density (323 K, 20000 kPa, Fluid (supercritical or subcritical phases)) [kg/m3] | mass density (328 K, 20000 kPa, Fluid (supercritical or subcritical phases)) [kg/m3] | mass density (333 K, 20000 kPa, Fluid (supercritical or subcritical phases)) [kg/m3] | Compound | mass density (288 K, 19600 kPa, Liquid) [kg/m3] | mass density (298 K, 19600 kPa, Liquid) [kg/m3] | mass density (308 K, 5000 kPa, Liquid) [kg/m3] | mass density (308 K, 10100 kPa, Liquid) [kg/m3] | mass density (308 K, 15400 kPa, Liquid) [kg/m3] | mass density (308 K, 19600 kPa, Liquid) | mass density (308 K, 23700 kPa, Liquid) [kg/m3] | mass density (318 K, 19600 kPa, Liquid) [kg/m3] | mass density (328 K, 19600 kPa, Liquid) [kg/m3]
– | – | – | – | – | – | – | – | – | – | FCC(F)(F)F [1,1,1,2-tetrafluoroethane] | 1290 ± 120 | 1270 ± 60 | 1150 ± 100 | 1180 ± 60 | 1210 ± 10 | 1240 ± 10 kg/m3 and 1240 ± 60 kg/m3 | 1260 ± 100 | 1210 ± 60 | 1180 ± 120
870 ± 120 | 570 | 780 ± 20 | 850 ± 80 kg/m3 and 830 ± 60 kg/m3 | 890 ± 180 | 900 ± 200 | 820 ± 20 | 790 ± 20 | 760 ± 80 | 730 ± 140 | O=C=O [carbon dioxide] | – | – | – | – | – | – | – | – | –
